Measured values: patent publication US20230174608A1, “Polypeptide Derivative Having Dual Receptor Agonistic Action and Use Thereof” (TIANJIN INSTITUTE OF PHARMACEUTICAL RESEARCH CO., LTD., priority 2020, published 2023)
Where a SMILES comes first, the peptide text is derived from it.

Tests used:
GLP-1R = target: T1, GLP-1R (Homo sapiens, UniProt P43220); test: GLP-1 receptor-mediated cAMP production in vitro; type: cell-based; details: HEK293 cell line stably expressing GLP-1R
T1 construct: expressed in transfected cells
T1 sequence (P43220 24-463, species assumed): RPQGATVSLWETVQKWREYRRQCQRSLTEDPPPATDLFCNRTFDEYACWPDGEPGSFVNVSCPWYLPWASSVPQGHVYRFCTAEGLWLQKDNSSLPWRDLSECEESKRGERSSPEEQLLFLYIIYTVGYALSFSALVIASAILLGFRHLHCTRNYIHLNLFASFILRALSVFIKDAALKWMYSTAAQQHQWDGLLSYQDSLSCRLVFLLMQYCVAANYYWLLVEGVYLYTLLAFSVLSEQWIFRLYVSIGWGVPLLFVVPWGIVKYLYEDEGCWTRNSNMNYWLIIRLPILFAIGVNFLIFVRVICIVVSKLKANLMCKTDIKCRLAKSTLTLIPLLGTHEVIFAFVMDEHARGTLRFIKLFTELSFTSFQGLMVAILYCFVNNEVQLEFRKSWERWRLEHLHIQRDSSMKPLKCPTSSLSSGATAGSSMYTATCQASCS
Outline: (§1)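 HEK293 cells stably expressing human GLP-1R or GCGR are stimulated with compound for 30 min in the dark in serum-free medium with 0.5 mM IBMX, with test dilutions spanning 1 μM down to 10^−3 nM. cAMP is detected after a 60 min room-temperature reaction as the 665/615 nm ratio.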

GCGR = target: T2, GCGR (Homo sapiens, UniProt P47871); test: GC receptor-mediated cAMP production in vitro; type: cell-based; details: HEK293 cell line stably expressing GCGR
T2 construct: expressed in transfected cells
T2 sequence (P47871 26-477, species assumed): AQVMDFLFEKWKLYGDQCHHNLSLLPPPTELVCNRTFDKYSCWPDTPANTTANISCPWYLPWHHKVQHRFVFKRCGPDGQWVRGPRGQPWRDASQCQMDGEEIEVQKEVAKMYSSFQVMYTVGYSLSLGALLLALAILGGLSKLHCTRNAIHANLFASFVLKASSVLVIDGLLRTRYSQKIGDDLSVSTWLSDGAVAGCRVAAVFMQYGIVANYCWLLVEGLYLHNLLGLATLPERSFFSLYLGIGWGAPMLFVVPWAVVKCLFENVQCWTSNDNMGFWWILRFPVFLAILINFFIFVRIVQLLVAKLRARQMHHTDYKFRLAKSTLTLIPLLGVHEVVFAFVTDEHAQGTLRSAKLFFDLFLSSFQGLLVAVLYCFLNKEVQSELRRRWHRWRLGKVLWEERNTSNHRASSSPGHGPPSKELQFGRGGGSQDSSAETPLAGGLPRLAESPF
Outline: as §1

[1] = tested on: glucose loaded normal mice; test: Glucose loading test on normal mice after single administration; type: in vivo, Kunming mice; details: for Blood glucose reduction rate (%) / Blood glucose level after glucose loading: 30 nmol/kg single dose; for Blood glucose reduction rate (%): after glucose loading, versus model control group; for Blood glucose level after glucose loading: glucose 2.5 g/kg intragastric 60 min after administration, measured 30 min after loading; for Blood glucose level after glucose loading / Fasting blood glucose level: n=5; for Fasting blood glucose level: normal mice fasted 6 h, 30 nmol/kg group
Outline: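 Male Kunming mice (20-22 g), 5 per group, fasted 6 h, received compound or semaglutide at 30 nmol/kg or saline. Glucose 2.5 g/kg given intragastrically 60 min post-dose; blood glucose measured 30 min after glucose loading.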

[2] = tested on: diet-induced obesity (DIO) mice; test: DIO model mice, weight after 2 weeks of administration; type: in vivo, C57BL/6N mice; details: 30 nmol/kg s.c. once a day, 14 days
Excerpt: Method: C57BL/6N mice were fed with H10060 high-fat diets to obtain diet-induced obesity (DIO) models, and mice in a control group (n=5) were fed with standard diets. One day before the first administration, the mice in the model group were randomly divided into 6 groups according to their weights (within a range of 40.5-50.5 g), i.e., a model control group, a positive control group, and test compound groups (dgc003, dgc004, dgc010, and dgc017), respectively, 5 mice in each group, which were administered once a day by subcutaneous injection. Saline was subcutaneously injected into each mouse in the blank control group and the model control group every day. The administration was performed for 14 days. The positive control drug and the test compounds were administered at a dose of 30 nmol/kg, and the administration volume for each group was 0.005 mL/g weight. The mice were weighed before each administration, and 72-h food intake was weighed every three days.

SMILES	EC50 (GLP-1R) [nM]	EC50 (GCGR) [nM]	Blood glucose reduction rate (%) [1] [%]	Blood glucose level after glucose loading [1] [mmol/L]	Fasting blood glucose level [1] [mmol/L]	Weight decreasing rate by the last administration [2] [%]
CCCCCCCCCCCCCCCC(=O)N[C@@H](CCC(=O)NCCCC[C@H](NC(=O)[C@H](C)NC(=O)[C@H](C)NC(=O)[C@H](CCCNC(=N)N)NC(=O)[C@H](CCC(=O)O)NC(=O)[C@H](CCC(=O)O)NC(=O)[C@H](CC(C)C)NC(=O)[C@H](Cc1ccc(O)cc1)NC(=O)[C@H](CCCCN)NC(=O)[C@H](CO)NC(=O)[C@H](Cc1ccc(O)cc1)NC(=O)[C@H](CC(=O)O)NC(=O)[C@H](CO)NC(=O)[C@@H](NC(=O)[C@H](Cc1ccccc1)NC(=O)[C@@H](NC(=O)CNC(=O)[C@H](CCC(N)=O)NC(=O)C(C)(C)NC(=O)[C@@H](N)Cc1c[nH]cn1)[C@@H](C)O)[C@@H](C)O)C(=O)N[C@@H](CCC(=O)O)C(=O)N[C@@H](Cc1ccccc1)C(=O)N[C@H](C(=O)N[C@@H](C)C(=O)N[C@@H](Cc1c[nH]c2ccccc12)C(=O)N[C@@H](CC(C)C)C(=O)N[C@@H](CCC(=O)O)C(=O)N[C@@H](C)C(=O)NCC(=O)NCC(N)=O)[C@@H](C)CC)C(=O)O [dgc004] (HELM PEPTIDE1{H.[Aib].Q.G.T.F.T.S.D.Y.S.K.Y.L.E.E.R.A.A.K.E.F.I.A.W.L.E.A.G.G.[am]}|PEPTIDE2{[CCCCCCCCCCCCCCCC(=O)[*:2]].[gGlu]}$PEPTIDE1,PEPTIDE2,20:R3-2:R2$$$V2.0; N-terminus assumed)	0.113	5.84	50.24	8.46 ± 2.28	3.42 ± 0.85	19.9
CCCCCCCCCCCCCCCC(=O)N[C@@H](CCC(=O)N[C@@H](CCC(=O)NCCCC[C@H](NC(=O)[C@H](C)NC(=O)[C@H](C)NC(=O)[C@H](CCCNC(=N)N)NC(=O)[C@H](CCC(=O)O)NC(=O)[C@H](CCC(=O)O)NC(=O)[C@H](CC(C)C)NC(=O)[C@H](Cc1ccc(O)cc1)NC(=O)[C@H](CCCCN)NC(=O)[C@H](CO)NC(=O)[C@H](Cc1ccc(O)cc1)NC(=O)[C@H](CC(=O)O)NC(=O)[C@H](CO)NC(=O)[C@@H](NC(=O)[C@H](Cc1ccccc1)NC(=O)[C@@H](NC(=O)CNC(=O)[C@H](CCC(N)=O)NC(=O)C(C)(C)NC(=O)[C@@H](N)Cc1c[nH]cn1)[C@@H](C)O)[C@@H](C)O)C(=O)N[C@@H](CCC(=O)O)C(=O)N[C@@H](Cc1ccccc1)C(=O)N[C@H](C(=O)N[C@@H](C)C(=O)N[C@@H](Cc1c[nH]c2ccccc12)C(=O)N[C@@H](CC(C)C)C(=O)N[C@@H](CCC(=O)O)C(=O)N[C@@H](CO)C(=O)NCC(=O)NCC(N)=O)[C@@H](C)CC)C(=O)O)C(=O)O [dgc010] (HELM PEPTIDE1{H.[Aib].Q.G.T.F.T.S.D.Y.S.K.Y.L.E.E.R.A.A.K.E.F.I.A.W.L.E.S.G.G.[am]}|PEPTIDE2{[CCCCCCCCCCCCCCCC(=O)[*:2]].[gGlu].[gGlu]}$PEPTIDE1,PEPTIDE2,20:R3-3:R2$$$V2.0; N-terminus assumed)	0.537	0.614	52.35	8.10 ± 1.13	3.78 ± 0.84	16.4
CCCCCCCCCCCCCCCC(=O)N[C@@H](CCC(=O)NCCCC[C@H](NC(=O)[C@H](C)NC(=O)[C@H](C)NC(=O)[C@H](CCCCN)NC(=O)[C@H](CCC(=O)O)NC(=O)[C@H](CC(=O)O)NC(=O)[C@H](CC(C)C)NC(=O)[C@H](Cc1ccc(O)cc1)NC(=O)[C@H](CCCCN)NC(=O)[C@H](CO)NC(=O)[C@H](Cc1ccc(O)cc1)NC(=O)[C@H](CC(=O)O)NC(=O)[C@H](CO)NC(=O)[C@@H](NC(=O)[C@H](Cc1ccccc1)NC(=O)[C@@H](NC(=O)CNC(=O)[C@H](CCC(N)=O)NC(=O)C(C)(C)NC(=O)[C@@H](N)Cc1c[nH]cn1)[C@@H](C)O)[C@@H](C)O)C(=O)N[C@@H](CCC(=O)O)C(=O)N[C@@H](Cc1ccccc1)C(=O)N[C@H](C(=O)N[C@@H](C)C(=O)N[C@@H](Cc1c[nH]c2ccccc12)C(=O)N[C@@H](CC(C)C)C(=O)N[C@@H](CCC(=O)O)C(=O)NCC(=O)NCC(N)=O)[C@@H](C)CC)C(=O)O [dgc017] (HELM PEPTIDE1{H.[Aib].Q.G.T.F.T.S.D.Y.S.K.Y.L.D.E.K.A.A.K.E.F.I.A.W.L.E.G.G.[am]}|PEPTIDE2{[CCCCCCCCCCCCCCCC(=O)[*:2]].[gGlu]}$PEPTIDE1,PEPTIDE2,20:R3-2:R2$$$V2.0; N-terminus assumed)	0.627	3.95	39.06	10.36 ± 1.87	3.72 ± 0.37	15.9
